From patent publication US9738599B2, “Thromboxane receptor antagonists” (UNIVERSITY COLLEGE DUBLIN, NATIONAL UNIVERSITY OF IRELAND, …, priority 2012, dated 2017) come the findings set out here.

The test system of this test is human platelets. The test is described as follows: U46619-induced human platelet aggregation ex vivo in platelet rich plasma. Format: cell-based. The conditions noted are these: fold less potent than TP20. From the text: A modification of the turbidimetric method originally developed by Born & Cross (Born, G. V. and Cross, M. J., The Aggregation of Blood Platelets, J Physiol, 1963, 168:178-95) is used. The principle is based on the diffraction of the light by particles. When a light beam passes through a suspension of particles, it is diffracted, depending on the number and the size of the particles in suspension.
In the Born & Cross method, a light beam passes through a platelet suspension and the quantity of light is measured by a detector placed after the sample. Upon platelet aggregation, the size of platelet aggregates will increase while the total number of free platelets will decrease. Consequently, less light will be diffracted and the detector will record an increase in light intensity. The aggregometer has been developed based on these concepts. Variations in light transmission recorded by this device reflects the platelet physiology. When an agonist of platelet aggregation is added to a platelet suspension, platelets undergo activation and shape change. […]
Light transmission (T) is measured throughout all the experiment, which is ended 8 minutes after induction of aggregation. Maximal light transmission (Tmax) is determined in the sample without drugs. Minimal light transmission (Tmin) is measured in PRP without inducer. […]

Take `COc1ccc(-c2cccc(Oc3ccc(C#N)cc3S(=O)(=O)NC(=O)NC(C)(C)C)c2)cc1` [NTP4, N-(tert-butylcarbamoyl)-5-cyano-2-((4′-methoxy-[1,1′-biphenyl]-3-yl)oxy)benzenesulfonamide]: the “Potency relative to TP20, inhibition of U46619-mediated platelet aggregation” value is on record as “approx. ten-fold”.
